Experimental data taken from publication PMC6864136 (Saudi Journal of Biological Sciences, 2018).
In brackets after ≈: the same amount, converted by molar mass. Several values for one entry are separate records, joined by “and”; a condition that tells them apart may be missing. Equal values may be shown once. Read-outs that look alike come from different tables or passages of the source.

Assays:
electric-eel AChE = electric-eel AChE (Electrophorus electricus, UniProt O42275); assay: In vitro acetylcholinesterase inhibition; format: biochemical
electric-eel AChE, sequence (O42275 24-633): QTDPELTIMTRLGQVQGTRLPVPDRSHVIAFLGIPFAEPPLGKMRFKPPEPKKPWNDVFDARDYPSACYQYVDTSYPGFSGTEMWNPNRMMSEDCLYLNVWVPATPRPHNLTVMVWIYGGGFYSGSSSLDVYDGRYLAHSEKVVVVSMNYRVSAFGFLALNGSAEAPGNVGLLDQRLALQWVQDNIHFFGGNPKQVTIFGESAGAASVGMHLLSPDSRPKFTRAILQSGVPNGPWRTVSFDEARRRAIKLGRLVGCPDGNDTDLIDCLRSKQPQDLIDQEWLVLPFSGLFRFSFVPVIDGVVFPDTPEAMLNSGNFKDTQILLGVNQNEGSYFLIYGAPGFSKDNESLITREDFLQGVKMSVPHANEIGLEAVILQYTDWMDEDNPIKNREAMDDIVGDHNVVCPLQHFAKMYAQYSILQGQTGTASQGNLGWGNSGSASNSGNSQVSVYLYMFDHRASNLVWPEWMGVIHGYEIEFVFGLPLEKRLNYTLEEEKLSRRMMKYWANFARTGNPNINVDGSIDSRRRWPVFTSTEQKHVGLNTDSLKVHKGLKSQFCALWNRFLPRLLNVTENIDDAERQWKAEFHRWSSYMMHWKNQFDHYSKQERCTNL

[1] = system: Spodoptera frugiperda larvae; assay: whole plant or invertebrate; format: in vivo; conditions: for EC50: Spodoptera frugiperda, in Zea mays, read-out: Antifeedant activity CE50 (µg/mL), S. frugiperda larvae, no-choice; for EC50 / Antifeedant activity CE50 (µg/mL) / Antifeedant activity CE50: 95% confidence limits in parentheses; for Antifeedant activity CE50 (µg/mL) / Antifeedant activity CE50: S. frugiperda larvae, no-choice
Artemia salina larvae = assay: Brine shrimp lethality; conditions: A. salina nauplii; 95% confidence limits in parentheses
[2] = system: Spodoptera frugiperda larvae; format: in vivo
[3] = S. frugiperda larvae, topical application, 95% confidence limits in parentheses

Row | Compound | IC50 (electric-eel AChE) [µM] | EC50 [1] [µg/mL] | Antifeedant index (% AI) ([1]; concentration 100 µg/mL) [%] | Antifeedant index (% AI) ([1]; concentration 250 µg/mL) [%] | Antifeedant index (% AI) ([1]; concentration 500 µg/mL) [%] | Antifeedant index (% AI) ([1]; concentration 1000 µg/mL) [%] | Antifeedant activity CE50 (µg/mL) [1] | Antifeedant index (% AI) ([1]; concentration 25 µg/mL) [%] | Antifeedant index (% AI) ([1]; concentration 50 µg/mL) [%] | LC50 (µg/mL), toxicity in Artemia salina larvae test (Artemia salina larvae) | Insecticidal activity LD50 (mg/g of insect) [2, 3] | Antifeedant activity CE50 [1] | Insecticidal activity LD50 (mg/g of insect) ([2]; in vivo)
1 | COc1cc(C2OCOCC2C)ccc1O (centres unmarked) [Compound 14, 2-methoxy-4-(5-methyl-1,3-dioxan-4-yl)-phenol] | 168 | 1800 (≈ 8010 µM) | 10.5 | 20.0 | 33.2 | 41.9 | – | – | – | – | – | – | –
2 | CC1(C)C(C=C(Cl)Cl)C1C(=O)OC(C#N)c1cccc(Oc2ccccc2)c1 (centres unmarked) [Cypermethrin, cypermethrin, reference compound] | – | 23.9 (≈ 57.3 µM) | 61.0 | 66.5 | 72.7 | 77.9 | 23.83 (22.55–25.15) µg/mL | 49.2 | 56.0 | 404.2 (383.2–425.2) µg/mL | – | – | –
3 | C=CCc1ccc(OC(=O)c2ccc([N+](=O)[O-])cc2)c(OC)c1 [Compound 7, O-(4-nitrobenzoyl)eugenol] | 314 | 724 (≈ 2310 µM) | 31.6 | 39.4 | 45.1 | 55.0 | – | – | 23.8 | – | – | – | –
4 | CCCc1ccc(O)c(OC)c1 [Compound 13, 2-methoxy-4-propylphenol] | 132 ± 2.77 | 319 (≈ 1920 µM) | 26.7 | 38.6 | 65.0 | 72.9 | – | – | 11.7 | – | 2.02 (1.87–2.17) mg/g of insect | – | –
5 | Isoeugenol [Compound 8] | – | – | 45.6 | 56.6 | 65.9 | 78.5 | 158.5 (149.3–167.8) µg/mL | 15.6 | 37.3 | – | – | 158.51 µg/mL and < 210 µg/mL | –
6 | C=CCc1ccc(OC(C)=O)c(OC)c1 [Compound 6, acetyleugenol] | 184 | – | 26.7 | 36.6 | 44.4 | 55.3 | – | – | 17.8 | – | – | – | 2.02 (1.87–2.14) mg/g of insect
7 | C=CCc1ccc(O)c(OC)c1 [Compound 1, Eugenol] | 180 | 188 (≈ 1140 µM) | 44.9 | 55.3 | 62.8 | 75.0 | 187.7 (176.6–198.9) µg/mL | 13.5 | 32.3 | – | – | < 210 µg/mL | –
8 | CC=Cc1ccc(OC(=O)c2ccc([N+](=O)[O-])cc2)c(OC)c1 [Compound 12, O-(4-nitrobenzoyl)isoeugenol] | 228 | 388 (≈ 1240 µM) | 30.2 | 41.5 | 52.8 | 66.9 | – | – | 14.4 | – | – | – | –
9 | C/C=C/c1ccc(OC)c(OC)c1 [Compound 9, O-methylisoeugenol] | 151 | 536 (≈ 3010 µM) | 33.2 | 40.1 | 47.3 | 58.5 | – | – | 20.5 | – | – | – | –
10 | C=CCc1ccc(OC)c(OC)c1 [Compound 2, O-methyleugenol] | 157 | 504 (≈ 2830 µM) | – | – | – | – | – | – | – | – | – | – | –
11 | CNC(=O)ON=C(C)SC [Methomyl, methomyl, reference compound] | 1.91 | – | – | – | – | – | – | – | – | 205.2 (184.9–225.5) µg/mL | 0.31 (0.29–0.33) mg/g of insect | – | –
